# Reference: paper PMC10746280, “Bacterial efflux pump modulators prevent bacterial growth in macrophages and under broth conditions that mimic the host environment” (mBio, 2023)
# What was measured:
# [1] = test system: S. Typhimurium SL1344 (sifB::gfp) in RAW 264.7 macrophages; assay: SAFIRE macrophage assay: intracellular bacterial load (GFP signal within macrophages); format: cell-based, Salmonella enterica serotype Typhimurium; conditions: for IC50: Salmonella enterica, TYPHIMURIUM, RAW264.7, read-out: SAFIRE IC50
# Summary of the method: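 Compound or DMSO added 2 h after gentamicin-protected infection (MOI ~30, sifB::gfp SL1344) of RAW 264.7 cells and left to 18 h. Fixed cells imaged; intracellular GFP area per macrophage gives bacterial load, while retained adherent MitoTracker Red-stained macrophages define host toxicity.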
# S. Typhimurium = assay: Checkerboard growth assays with antibiotics in LPM 5.5 (FICI and MuSyC analyses); format: cell-based; set-up: Antibiotic MIC Combination: unit not given here; EPM MIC Combination: unit: µM; conditions: for log10(α1) [95% CI] (log-fold-change in potency of EPM due to the antibiotic) / log10(α2) [95% CI] (log-fold-change in potency of the antibiotic due to the EPM) / Βobs [95% CI] (proportion increase in maximal efficacy of the antibiotic): MuSyC fit; for Antibiotic MIC Combination / EPM MIC Combination / FICI value: LPM 5.5
# Experimental: To examine whether the EPM analogs interact additively or synergistically with antibiotics, checkerboard growth assays were carried out in LPM 5.5. We compared three antibiotics (ciprofloxacin, doxycycline, erythromycin) and three EPM analogs (CU032, CU187, CU232) and the EPM35 parent compound (Fig. 6A). Standard fractional inhibitory concentration index (FICI) analyses supported synergy between the EPM analogs and ciprofloxacin (Fig. 6B). Since FICI values cannot distinguish between synergy due to changes in potency (activity) versus efficacy (the extent of the effect) ([42], [43]), we used the MuSyC synergy algorithm to measure EPM-antibiotic synergy ([44], [45]). The data were well fit by the MuSyC equation, with an R^2 of greater than 0.96 for all checkerboards (Table S2). […] Moreover, the consistency in the synergy of potency values across the antibiotics with different EPM analogs points toward a shared mechanism of action: the EPMs could modify the pharmacodynamics of the efflux process and prevent export of specific substrates through interactions with AcrB. We posit that the EPMs differentially reduce antibiotic export resulting in a higher effective intracellular concentration of the antibiotic.
# Overnight cation-adjusted MHB-grown cultures of SL1344 or SA10801 were diluted in MHB or LPM 5.5 to an optical density at 600 nm (OD600) of 0.01 and distributed into polystyrene 96-well flat-bottom plates. EPM analogs were added at concentrations up to 300 µM, near the limit of solubility. The antibiotics ciprofloxacin, doxycycline, and erythromycin were added up to concentrations of 2 µM, 2 µM, and 8 µM, respectively. The final DMSO concentration was at or below 2% in all wells. Plates were grown at 37°C with shaking for 18 h and OD600 was monitored (BioTek Synergy H1, BioTek Eon). Each experiment was performed with biological triplicate or higher as indicated. Percent growth was determined by normalizing to OD600 reads in wells containing no D66 or antibiotic. Checkerboards in LPM 5.5 medium were performed with culture grown overnight in LB and diluted to an OD600 of 0.01 in LPM 5.5 and compounds/antibiotics were added as previously described. MuSyC analysis was pursued as previously described ([44], [45]). Briefly, the 2D Hill equation was fit to the normalized growth inhibition data from the checkerboards using a bounded non-linear least square regression algorithm. A Monte Carlo sampling method was used to compute the 95% CI in the parameter fits from three biological replicates. The bounds on the parameters minimal and maximal efficacy of the antibiotics and EPMs (E0,Emax) were [0.99,1.01] and [0,1], respectively ([44], [45]).
# [2] = 25 uM, 'Toxic' given instead of a score
# [3] = ciprofloxacin (CIPRO) MIC in combination with the EPM
# [4] = doxycycline (DOXY) MIC in combination with the EPM
# [5] = 5 uM compound, n=1, DMSO solvent control = 98, rifampicin 2 μg/mL = 65
# [6] = 25 uM compound, n=1, DMSO solvent control = 98, rifampicin 2 μg/mL = 65
Structure (SMILES),"25 uM Avg Antibacterial Score [1, 2]",IC50 [1] [nM],log10(α1) [95% CI] (log-fold-change in potency of EPM due to the antibiotic) (S. Typhimurium; Ciprofloxacin),log10(α2) [95% CI] (log-fold-change in potency of the antibiotic due to the EPM) (S. Typhimurium; Ciprofloxacin),Βobs [95% CI] (proportion increase in maximal efficacy of the antibiotic) (S. Typhimurium; Ciprofloxacin),log10(α1) [95% CI] (log-fold-change in potency of EPM due to the antibiotic) (S. Typhimurium; Doxycycline),log10(α2) [95% CI] (log-fold-change in potency of the antibiotic due to the EPM) (S. Typhimurium; Doxycycline),Βobs [95% CI] (proportion increase in maximal efficacy of the antibiotic) (S. Typhimurium; Doxycycline),log10(α1) [95% CI] (log-fold-change in potency of EPM due to the antibiotic) (S. Typhimurium; Erythromycin),log10(α2) [95% CI] (log-fold-change in potency of the antibiotic due to the EPM) (S. Typhimurium; Erythromycin),Βobs [95% CI] (proportion increase in maximal efficacy of the antibiotic) (S. Typhimurium; Erythromycin),Antibiotic MIC Combination (S. Typhimurium; [3]),Antibiotic MIC Combination (S. Typhimurium; [4]),EPM MIC Combination (S. Typhimurium; with ciprofloxacin (CIPRO)),FICI value (S. Typhimurium; with ciprofloxacin (CIPRO)),EPM MIC Combination (S. Typhimurium; with doxycycline (DOXY)),FICI value (S. Typhimurium; with doxycycline (DOXY)),EPM MIC Combination (S. Typhimurium; with erythromycin (ERY)),FICI value (S. Typhimurium; with erythromycin (ERY)),"5 uM Avg Antibacterial Score [1, 5]",further results
NC1CCN(CC(O)COc2ccc(Cl)c(Cl)c2)C1 (stereo not drawn) [CU032],21,17.4,"0.0 [-0.42,0.07]","1.52 [1.32,1.56]","0.07 [0.05,0.1 ]","-0.06 [-0.3,0.04]","0.25 [0.17,0.28]","0.0 [-0.01,0.01]","0.08 [-0.23,0.05]","1.11 [0.98,1.11]","0.04 [0.04,0.07]",1,2,30,0.35,100,0.55,100,0.58,–,"5 uM Avg Antibacterial Score ([1]; 5 uM, 'Toxic' given instead of a score): 55"
NC1CCN(CC(O)COc2cccc(C(F)(F)F)c2)CC1 (stereo not drawn) [CU232],–,6.9,"0.34 [0.18,0.38]","1.87 [1.73,1.85]","0.0 [-0.02,0.03]","0.14 [-0.23,0.33]","0.16 [0.06,0.19]","0.02 [-0.01,0.02]","-0.02 [-0.35,-0.05]","1.38 [1.11,1.44]","0.06 [0.05,0.07]",1,2,44,0.4,100,0.58,100,0.58,37,"25 uM Avg Antibacterial Score [1, 6]: 21"
OC(CN[C@H]1[C@@H]2CNC[C@@H]21)COc1cc(Cl)cc(Cl)c1 (stereo partly drawn) [CU244],–,372,–,–,–,–,–,–,–,–,–,–,–,–,–,–,–,–,–,48,"25 uM Avg Antibacterial Score [1, 6]: 19"
OC(COc1ccc(Cl)c(Cl)c1)CN1CCC(Nc2nccc(C(F)(F)F)n2)CC1 (stereo not drawn) [EPM35],Toxic,3450,"0.58 [0.17,0.77]","-0.12 [-0.22,0.03]","0.01 [-0.01,0.01]","0.7 [0.41,0.87]","0.43 [0.31,0.39]","-0.01 [-0.04,-0.01]","0.49 [0.15,0.74]","-0.01 [-0.06,0.03]","0.01 [-0.01,0.01]",1,2,150,0.7,150,1,150,1,–,synergy with antibiotics (S. Typhimurium; checkerboards in LPM 5.5): did not synergize with the antibiotics
